# Test system: patients with advanced solid tumors
# Assay: Safety: treatment-emergent and senaparib-related adverse events graded per NCI CTCAE v4.03
# Assay type: in vivo
# Method: This phase I, open-label, multicenter, dose-escalation, and dose-expansion study was conducted at three national clinical institutions in China. […] At baseline, all patients enrolled in the dose-escalation phase had to have at least one evaluable lesion, and those in the dose-expansion period had to have at least one measurable lesion, according to Response Evaluation Criteria in Solid Tumors version 1.1 (RECIST v1.1).[16] Entry to the dose-expansion cohort required the presence of a BRCA mutation, with the exception of patients with ovarian carcinoma, fallopian tube carcinoma, and primary peritoneal carcinoma. Full study eligibility criteria are provided in Supplementary Table S1.
# Dose escalation was conducted using a modified Fibonacci 3 + 3 method (Supplementary Fig. S1).[17] Patients were administered oral senaparib from a planned starting dose of 2 mg once daily (QD), with preliminary dose escalation to 120 mg via nine dose groups, in order of their entry into the study. At a given dose level, each patient received a single dose of senaparib followed by a 7-day washout period. They then entered a continuous dosing period to confirm the safety and PK profile, in which they received senaparib QD from day 1 to day 21 of each 3-week cycle. Progression to the next higher dose required approval from the Data Safety Monitoring Committee (DSMC) upon review of the safety and PK data of the previous dose. A 50-mg twice-daily (BID) dosing group was added (planned enrollment, n = 6 patients) based on a DSMC review of the safety, PK, and efficacy analysis of the completed QD dose groups in the phase I clinical trial of senaparib dose escalation in Australia (NCT03507543), which commenced prior to the start of this trial.
# The dose-expansion period included 3 populations: dose groups in which at least one patient achieved complete response (CR) or partial response (PR) per RECIST v1.1[16] and 1 dose group higher (evaluated for safety), as well as the dose group at the maximum tolerated dose (MTD)/recommended phase II dose (RP2D). Each of these groups included those patients in the respective dose-escalation group plus a planned additional 10 patients (approximately 20 patients in the MTD/RP2D group) with BRCA^mut+ solid tumors (ovarian, breast, or prostate cancer were preferred, and ovarian cancer could be BRCA wild type). Patients received senaparib monotherapy orally QD or BID (50-mg dose only) over each 3-week cycle until disease progression or unacceptable toxicity.
# DLTs were predefined toxicities (Supplementary Table S2) recorded over the 7 days following the single-dose administration of senaparib and during the first treatment cycle (day 1-day 21) for each dose group in the dose-escalation period only. The MTD was defined as the maximum dose at which ≤1/6 patients experienced a DLT. Senaparib PK parameters were derived from blood samples collected from patients after the single administration, and at regular intervals during the first cycle of the dose-escalation and dose-expansion periods. Plasma concentrations of senaparib were determined using high-performance liquid chromatography-tandem mass spectrometry. Tumor response was assessed every 6 weeks per RECIST v1.1,[16] recording objective response rate (ORR), disease control rate (DCR), duration of response (DOR), and progression-free survival (PFS) by dose level for all patients and for those harboring BRCA^mut+ tumors.
smiles,measurement,setting,value
O=C(c1cc(Cn2c(=O)[nH]c(=O)c3c(F)cccc32)ccc1F)N1CCN(c2ncccn2)CC1 [Senaparib],"Blood creatinine increased TRAE, Gr≥3",10 mg QD n = 3,0 n (%)
same,"Hypokalemia TRAE, All",10 mg QD n = 3,0 n (%)
same,"Hypokalemia TRAE, Gr≥3",10 mg QD n = 3,0 n (%)
same,"Nausea TRAE, All",10 mg QD n = 3,0 n (%)
same,"Nausea TRAE, Gr≥3",10 mg QD n = 3,0 n (%)
same,"Neutrophil count decreased TRAE, All",10 mg QD n = 3,0 n (%)
same,"Neutrophil count decreased TRAE, Gr≥3",10 mg QD n = 3,0 n (%)
same,"Platelet count decreased TRAE, All",10 mg QD n = 3,0 n (%)
same,"Platelet count decreased TRAE, Gr≥3",10 mg QD n = 3,0 n (%)
same,"SAEs, events",10 mg QD n = 3,0 n ev
same,"SAEs, patients",10 mg QD n = 3,0 n (%)
same,"TEAE Grade ≥3, events",10 mg QD n = 3,0 n ev
same,"TEAE Grade ≥3, patients",10 mg QD n = 3,0 n (%)
same,"TEAEs leading to death, events",10 mg QD n = 3,0 n ev
same,"TEAEs leading to death, patients",10 mg QD n = 3,0 n (%)
same,"TEAEs leading to dose discontinuation, events",10 mg QD n = 3,0 n ev
same,"TEAEs leading to dose discontinuation, patients",10 mg QD n = 3,0 n (%)
same,"TEAEs leading to dose interruption, events",10 mg QD n = 3,0 n ev
same,"TEAEs leading to dose interruption, patients",10 mg QD n = 3,0 n (%)
same,"TEAEs leading to dose reduction, events",10 mg QD n = 3,0 n ev
same,"TEAEs leading to dose reduction, patients",10 mg QD n = 3,0 n (%)
same,"TRAEs Grade ≥3, events",10 mg QD n = 3,0 n ev
same,"TRAEs Grade ≥3, patients",10 mg QD n = 3,0 n (%)
same,"TRAEs, patients",10 mg QD n = 3,3 (100) n (%)
same,"Vomiting TRAE, All",10 mg QD n = 3,0 n (%)
same,"Vomiting TRAE, Gr≥3",10 mg QD n = 3,0 n (%)
same,"WBC decreased TRAE, All",10 mg QD n = 3,1 (33.3) n (%)
same,"WBC decreased TRAE, Gr≥3",10 mg QD n = 3,0 n (%)
same,"ALT increased TRAE, All",20 mg QD n = 5,0 n (%)
same,"ALT increased TRAE, Gr≥3",20 mg QD n = 5,0 n (%)
same,"AST increased TRAE, All",20 mg QD n = 5,0 n (%)
same,"AST increased TRAE, Gr≥3",20 mg QD n = 5,0 n (%)
same,"Anemia TRAE, All",20 mg QD n = 5,1 (20.0) n (%)
same,"Anemia TRAE, Gr≥3",20 mg QD n = 5,1 (20.0) n (%)
same,"Any TEAE, All",20 mg QD n = 5,5 (100) n (%)
same,"Any TEAE, Gr≥3",20 mg QD n = 5,2 (40.0) n (%)
same,"Any TEAE, events",20 mg QD n = 5,30 n ev
same,"Any TEAE, patients",20 mg QD n = 5,5 (100) n (%)
same,"Any TRAE, All",20 mg QD n = 5,3 (60.0) n (%)
same,"Any TRAE, Gr≥3",20 mg QD n = 5,1 (20.0) n (%)
same,"Appetite decreased TRAE, All",20 mg QD n = 5,0 n (%)
same,"Appetite decreased TRAE, Gr≥3",20 mg QD n = 5,0 n (%)
same,"Asthenia TRAE, All",20 mg QD n = 5,1 (20.0) n (%)
same,"Asthenia TRAE, Gr≥3",20 mg QD n = 5,0 n (%)
same,"Blood bilirubin increased TRAE, All",20 mg QD n = 5,0 n (%)
same,"Blood bilirubin increased TRAE, Gr≥3",20 mg QD n = 5,0 n (%)
same,"Blood creatinine increased TRAE, All",20 mg QD n = 5,1 (20.0) n (%)
same,"Blood creatinine increased TRAE, Gr≥3",20 mg QD n = 5,0 n (%)
same,"Hypokalemia TRAE, All",20 mg QD n = 5,1 (20.0) n (%)
same,"Hypokalemia TRAE, Gr≥3",20 mg QD n = 5,0 n (%)
same,"Nausea TRAE, All",20 mg QD n = 5,1 (20.0) n (%)
same,"Nausea TRAE, Gr≥3",20 mg QD n = 5,0 n (%)
same,"Neutrophil count decreased TRAE, All",20 mg QD n = 5,0 n (%)
same,"Neutrophil count decreased TRAE, Gr≥3",20 mg QD n = 5,0 n (%)
same,"Platelet count decreased TRAE, All",20 mg QD n = 5,1 (20.0) n (%)
same,"Platelet count decreased TRAE, Gr≥3",20 mg QD n = 5,0 n (%)
same,"SAEs, events",20 mg QD n = 5,1 n ev
same,"SAEs, patients",20 mg QD n = 5,1 (20.0) n (%)
same,"TEAE Grade ≥3, events",20 mg QD n = 5,3 n ev
same,"TEAE Grade ≥3, patients",20 mg QD n = 5,2 (40.0) n (%)
same,"TEAEs leading to death, events",20 mg QD n = 5,1 n ev
same,"TEAEs leading to death, patients",20 mg QD n = 5,1 (20.0) n (%)
same,"TEAEs leading to dose discontinuation, events",20 mg QD n = 5,2 n ev
same,"TEAEs leading to dose discontinuation, patients",20 mg QD n = 5,2 (40.0) n (%)
same,"TEAEs leading to dose interruption, events",20 mg QD n = 5,1 n ev
same,"TEAEs leading to dose interruption, patients",20 mg QD n = 5,1 (20.0) n (%)
same,"TEAEs leading to dose reduction, events",20 mg QD n = 5,0 n ev
same,"TEAEs leading to dose reduction, patients",20 mg QD n = 5,0 n (%)
same,"TRAEs Grade ≥3, events",20 mg QD n = 5,1 n ev
same,"TRAEs Grade ≥3, patients",20 mg QD n = 5,1 (20.0) n (%)
same,"TRAEs, events",20 mg QD n = 5,15 n ev
same,"TRAEs, patients",20 mg QD n = 5,3 (60.0) n (%)
same,"Vomiting TRAE, All",20 mg QD n = 5,0 n (%)
same,"Vomiting TRAE, Gr≥3",20 mg QD n = 5,0 n (%)
same,"WBC decreased TRAE, All",20 mg QD n = 5,1 (20.0) n (%)
same,"WBC decreased TRAE, Gr≥3",20 mg QD n = 5,0 n (%)
same,"ALT increased TRAE, All",40 mg QD n = 3,0 n (%)
same,"ALT increased TRAE, Gr≥3",40 mg QD n = 3,0 n (%)
same,"AST increased TRAE, All",40 mg QD n = 3,0 n (%)
same,"AST increased TRAE, Gr≥3",40 mg QD n = 3,0 n (%)
same,"Anemia TRAE, All",40 mg QD n = 3,1 (33.3) n (%)
same,"Anemia TRAE, Gr≥3",40 mg QD n = 3,0 n (%)
same,"Any TEAE, All",40 mg QD n = 3,3 (100) n (%)
same,"Any TEAE, Gr≥3",40 mg QD n = 3,0 n (%)
same,"Any TEAE, events",40 mg QD n = 3,7 n ev
same,"Any TEAE, patients",40 mg QD n = 3,3 (100) n (%)
same,"Any TRAE, All",40 mg QD n = 3,3 (100) n (%)
same,"Any TRAE, Gr≥3",40 mg QD n = 3,0 n (%)
same,"Appetite decreased TRAE, All",40 mg QD n = 3,0 n (%)
same,"Appetite decreased TRAE, Gr≥3",40 mg QD n = 3,0 n (%)
same,"Asthenia TRAE, All",40 mg QD n = 3,1 (33.3) n (%)
same,"Asthenia TRAE, Gr≥3",40 mg QD n = 3,0 n (%)
same,"Blood bilirubin increased TRAE, All",40 mg QD n = 3,0 n (%)
same,"Blood bilirubin increased TRAE, Gr≥3",40 mg QD n = 3,0 n (%)
same,"Blood creatinine increased TRAE, All",40 mg QD n = 3,1 (33.3) n (%)
same,"Blood creatinine increased TRAE, Gr≥3",40 mg QD n = 3,0 n (%)
same,"Hypokalemia TRAE, All",40 mg QD n = 3,0 n (%)
same,"Hypokalemia TRAE, Gr≥3",40 mg QD n = 3,0 n (%)
same,"Nausea TRAE, All",40 mg QD n = 3,0 n (%)
same,"Nausea TRAE, Gr≥3",40 mg QD n = 3,0 n (%)
same,"Neutrophil count decreased TRAE, All",40 mg QD n = 3,0 n (%)
same,"Neutrophil count decreased TRAE, Gr≥3",40 mg QD n = 3,0 n (%)
same,"Platelet count decreased TRAE, All",40 mg QD n = 3,0 n (%)
same,"Platelet count decreased TRAE, Gr≥3",40 mg QD n = 3,0 n (%)
same,"SAEs, events",40 mg QD n = 3,0 n ev
same,"SAEs, patients",40 mg QD n = 3,0 n (%)
same,"TEAE Grade ≥3, events",40 mg QD n = 3,0 n ev
same,"TEAE Grade ≥3, patients",40 mg QD n = 3,0 n (%)
same,"TEAEs leading to death, events",40 mg QD n = 3,0 n ev
same,"TEAEs leading to death, patients",40 mg QD n = 3,0 n (%)
same,"TEAEs leading to dose discontinuation, events",40 mg QD n = 3,0 n ev
same,"TEAEs leading to dose discontinuation, patients",40 mg QD n = 3,0 n (%)
same,"TEAEs leading to dose interruption, events",40 mg QD n = 3,0 n ev
same,"TEAEs leading to dose interruption, patients",40 mg QD n = 3,0 n (%)
same,"TEAEs leading to dose reduction, events",40 mg QD n = 3,0 n ev
same,"TEAEs leading to dose reduction, patients",40 mg QD n = 3,0 n (%)

# Source: PMC10712727, “Safety, Tolerability, and Pharmacokinetics of Senaparib, a Novel PARP1/2 Inhibitor, in Chinese Patients With Advanced Solid Tumors: A Phase I Trial” (The Oncologist, 2023)
